Test results from publication PMC5654414, “In vitro and in vivo comparative and competitive activity-based protein profiling of GH29 α-L-fucosidases” (Chemical Science, 2015).

Columns and labels:
FUCA1 = biological target: T1, FUCA1 (Homo sapiens, UniProt P04066); assay: Fluorescent labeling kinetics, time course on SDS-PAGE; format: binding; set-up: expressed in transfected cells; host or cells: COS-7; settings: 10 nM probe, stoichiometric rhFUCA1, 4 °C
T1 sequence (P04066 32-466): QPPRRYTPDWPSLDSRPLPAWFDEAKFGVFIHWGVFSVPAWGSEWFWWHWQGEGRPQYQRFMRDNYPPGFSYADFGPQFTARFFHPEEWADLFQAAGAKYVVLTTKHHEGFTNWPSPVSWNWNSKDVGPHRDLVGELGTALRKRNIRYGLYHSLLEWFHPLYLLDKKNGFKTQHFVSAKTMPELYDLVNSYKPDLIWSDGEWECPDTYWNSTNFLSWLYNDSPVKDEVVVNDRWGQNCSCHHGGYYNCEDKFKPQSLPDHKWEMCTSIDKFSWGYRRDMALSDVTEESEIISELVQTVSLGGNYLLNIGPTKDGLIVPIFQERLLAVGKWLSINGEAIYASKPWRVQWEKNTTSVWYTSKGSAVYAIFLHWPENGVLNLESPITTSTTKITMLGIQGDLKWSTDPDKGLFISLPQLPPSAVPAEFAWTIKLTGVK
From the text: This rapid reaction with both 1 and 2 also precluded a classic determination of kinetic constants following a time-dependent decrease in detectable 4-methylumbelliferone (ESI Fig. S5b ^†).
Fig. S4. In vitro pH profile of recombinant FUCA1. A) In vitro labeling of COS-7 cell lysate containing over-expressed human FUCA1 at various pH with ABP 1. B) Relative in vitro labeling of FUCA1 with ABP 1 (closed squares) compared to relative enzymatic activity towards artificial 4-methylumbelliferyl-α-L-fucopyranoside substrate (open circles) at various pH. Data average of n = 3 experiments, ± standard deviation.
Fig. S5. In vitro inhibition kinetics of ABPs 1 and 2 towards recombinant human FUCA1. A) Stoichiometric in situ labeling of COS-7 lysate containing over-expressed human FUCA1 with 10 nM ABP 1 at 4°C and 37°C. B) Plots of Kobserved against the concentration of ABP 1 and 2. Rates determined through direct kinetic measurements of liberated 4-methylumbelliferone from 4-methylumbelliferyl-α-L-fucopyranoside substrate whilst in the presence of varying concentrations of ABP 1 and 2. […]

FUCA2 = biological target: T2, FUCA2 (Homo sapiens, UniProt Q9BTY2); assay: In vitro ABP labeling of FUCA2 overexpressed in COS cells; format: binding
T2 construct: expressed in transfected cells; host or cells: COS-7
T2 sequence (Q9BTY2 29-467): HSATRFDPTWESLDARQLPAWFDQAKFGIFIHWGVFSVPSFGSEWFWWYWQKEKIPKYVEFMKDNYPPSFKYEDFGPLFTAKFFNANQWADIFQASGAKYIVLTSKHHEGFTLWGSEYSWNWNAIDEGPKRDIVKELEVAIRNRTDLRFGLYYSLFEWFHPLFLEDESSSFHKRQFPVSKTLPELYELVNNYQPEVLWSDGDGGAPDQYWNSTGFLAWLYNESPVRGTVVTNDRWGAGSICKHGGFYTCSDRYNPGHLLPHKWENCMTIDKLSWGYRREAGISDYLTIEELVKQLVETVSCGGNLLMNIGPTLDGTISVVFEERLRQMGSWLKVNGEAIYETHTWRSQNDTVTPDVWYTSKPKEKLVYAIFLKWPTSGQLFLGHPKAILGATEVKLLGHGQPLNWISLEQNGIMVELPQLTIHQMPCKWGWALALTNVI
From the text: Subsequently, we exposed lysates of spleens from a healthy human individual and a patient suffering from Gaucher disease to ABP 1.
The coding sequences of H. sapiens FUCA1 (NCBI reference sequence XM_005245821.1, using forward primer 5′-[…]-3′ and reverse primer 5′-[…]-3′), and of H. sapiens FUCA2 (NCBI reference sequence NM_032020.4, using forward primer 5′-[…] […]-3′ and reverse primer 5′-[…] […]-3′) were amplified via PCR and cloned into pDNOR-221 and thereafter sub-cloned in pcDNA™-DEST40 vector using the Gateway system (Invitrogen). Correctness of all constructs was verified by sequencing. Confluent COS-7 cells were transfected with pcDNA3.1 empty vector (Mock) or the vector with described insert in conjunction with FuGENE (Roche).
All pre-incubations and ABP labeling-reactions occurred for 30 min at 37 °C. Total lysates (50 μg), medium (500 μg) or purified protein preparations (5 μg) were labeled with 1 μM JJB256 1 or JJB244 2, dissolved in 150 mM McIlvaine buffer, pH 4.5, incubating for 30 min at 37 °C. […] Wet slab-gels were scanned on fluorescence using a Typhoon Variable Mode Imager (Amersham Biosciences) using λEX 488 nm and λEM 520 nm (band pass filter 40 nm) for green fluorescent JJB256 1 and λEX 532 nm and λEM 610 nM (band pass filter 30 nm) for red fluorescent JJB244 2 and JJB75.

- completeness of labeling over time (FUCA1): near complete within the first minute
- labeling of enzyme (FUCA2): labeled
Compound: CC1=CC(C)=[N+]2C1=C(CCCCc1cn(CCCCCCCC(=O)N3[C@@H]4[C@@H](C)[C@@H](O)[C@@H](O)[C@H](O)[C@@H]43)nn1)c1c(C)cc(C)n1[B-]2(F)F [compound 1]
